Experiments:
Format in all cases: cell-based, human
[1] = test system: early erythroid cells (Eryth I); test: MLTA, ErythI: concentration-response and QSP model fit; conditions: Homo sapiens; for Emax: 144 h, parameter from QSP model fitting, read-out: Emax_drug_ErythroidI; for EC50: QSP model parameter, sheet EC50_parameters, Erythroid I, read-out: EC50ErythroidI
Experimental: (§1) A custom optimized cytokine cocktail was developed using commercially available cytokines (Peprotech, New Jersey) to facilitate simultaneous multi-lineage differentiation and self-renewal of freeze-thawed primary human bone marrow-derived CD34+ cells in SFEM II media (cells and media from StemCell Technologies, Vancouver). Cultures were carried out in ultra-low attachment 96-well plates (Corning, New York) with test article added on day 0 and cultured at 37°C, 85% relative humidity, and 5% CO2 for six days before interrogating drug impact via 17-parameter flow cytometry.
(§2) The flow cytometry panel used to define hematopoietic subsets was composed of CD34-PECy7, CD90-PECY5, CD38-AF488, CD371-PE, CD45Ra-BV421, CD14-BV605, CD42b-AF647, CD10-PEDazzle594, CD235a-PerCPCy5.5 (BioLegend, California), CD15-BUV395, CD41a-APCH7, CD71-BV786 (BD Biosciences, California), and DAPI for dead cell exclusion (ThermoFisher, California). In short, Day 6 cells were harvested, FcR-blocked (FcR binding inhibitor, ThermoFisher), surface-stained, then analyzed in a buffer containing TruCount Control Beads using a BD LSR Fortessa SORP fitted with a high-throughput sampler (BD Biosciences, California). Data was analyzed in Diva 6.0.2 and exported to CSV where after all cell data was transformed to cell per mL then normalized on a per-donor basis to untreated control wells to determine drug impact.
(§3) Donor material was collected and cultured as described above. The number of replicate donor samples per drug ranged from 2–7 and varied per drug (S1 Table). Drug treatment was added at time 0 and cells were maintained in culture for 6 days. Concentrations tested for each drug compound are contained in S1 Table. Concentrations were selected to span a range that is clinically useful. Following treatment, cell populations were measured using flow cytometry. We extracted cell counts from flow cytometry data, normalized to bead counts, and corrected for well volume.
(§4) Each well was normalized to the average of six vehicle control wells. For drugs that were tested across multiple runs of the assay, vehicle-normalized donor data were pooled, and we used the average of these pooled data for further modeling. Normalized data used as model inputs are included in S1 Table.
(§5) We implemented drug effects using an Emax model for the drug’s effect on each cell type. The 13 maximum effect parameters (EmaxT,C) are unitless and can vary between 0 and 2 and where a subscript, C, represents one of the previously described 13 cell types. We adapted a traditional Emax model using the equations below. We interpreted EmaxT values less than or equal to one as anti-proliferative, and EmaxT values greater than one as indicating a cell-killing mechanism in addition to anti-proliferation. The relationships for these effects are included in the model using the following equations. Eq 2 describes the drug anti-proliferative effect in the net proliferation rate for a given cell type. Eq 3 describes the cell-killing EmaxCK effect.
(§6) Towards the estimation of mechanistic parameters, we considered different formulations: (a) weighting the objective value to prioritize fitting dead cells and (b) using regularization methodology to encourage a parsimonious solution. We assessed the contributions of these formulations using mean-squared error and goodness of fit plots for drugs with known mechanisms. […] Further, we used L1 regularization to penalize parameters […] to help identify a parsimonious set of parameters to explain drug effects.

[2] = test system: multi-potent progenitors (MPPs); test: MLTA, MPPs: concentration-response and QSP model fit; conditions: Homo sapiens; for Emax: 144 h, parameter from QSP model fitting, read-out: Emax_drug_MPP; for EC50: QSP model parameter, sheet EC50_parameters, MPPs
Experimental: as §1, §2, §3, §4, §5, §6

B cells (B-lin) = test: MLTA, B-lin: concentration-response and QSP model fit; conditions: Homo sapiens, B-cell; for Emax: 144 h, parameter from QSP model fitting, read-out: Emax_drug_B; for EC50: QSP model parameter, sheet EC50_parameters, B
Experimental: as §1, §2, §3, §4, §5, §6

[3] = test system: lymphocyte progenitors (LymP); test: MLTA, LymP: concentration-response and QSP model fit; conditions: Homo sapiens, Lymphocyte; for Emax: 144 h, parameter from QSP model fitting, read-out: Emax_drug_LymP; for EC50: QSP model parameter, sheet EC50_parameters, LymP
Experimental: as §1, §2, §3, §4, §5, §6

[4] = test system: granulocyte-macrophage progenitor (GMPs); test: MLTA, GMPs: concentration-response and QSP model fit; conditions: Homo sapiens; QSP model parameter, sheet EC50_parameters; GMPs
Experimental: as §1, §2, §3, §4, §5, §6

[5] = test system: granulocyte progenitor (Gran-lin prog); test: MLTA, GranP: concentration-response and QSP model fit; conditions: Homo sapiens; for Emax: 144 h, parameter from QSP model fitting, read-out: Emax_drug_GranP; for EC50: QSP model parameter, sheet EC50_parameters, GranP, read-out: EC50GranP
Experimental: as §1, §2, §3, §4, §5, §6

[6] = test system: monocyte progenitors (monocyte prog); test: MLTA, MonoP: concentration-response and QSP model fit; conditions: Homo sapiens, Monocyte; for Emax: 144 h, parameter from QSP model fitting, read-out: Emax_drug_MonoP; for EC50: QSP model parameter, sheet EC50_parameters, MonoP, read-out: EC50MonoP
Experimental: as §1, §2, §3, §4, §5, §6

[7] = test system: late erythroid cells (Eryth II); test: MLTA, ErythII: concentration-response and QSP model fit; conditions: Homo sapiens; for Emax: 144 h, parameter from QSP model fitting, read-out: Emax_drug_ErythroidII; for EC50: QSP model parameter, sheet EC50_parameters, Erythroid II, read-out: EC50ErythroidII
Experimental: as §1, §2, §3, §4, §5, §6

[8] = test system: hematopoietic stem cells (HSCs); test: Multi-lineage toxicity assay (MLTA), HSCs: concentration-response and QSP model fit; conditions: Homo sapiens, Hematopoietic stem cell; for Emax: 144 h, parameter from QSP model fitting, read-out: Emax_drug_HSC; for EC50: QSP model parameter, sheet EC50_parameters, HSCs
Experimental: as §1, §2, §3, §4, §5, §6

[9] = test system: neutrophils (neutrophil-lin); test: MLTA, Neut: concentration-response and QSP model fit; conditions: Homo sapiens, Neutrophil; for Emax: 144 h, parameter from QSP model fitting, read-out: Emax_drug_Neut; for EC50: QSP model parameter, sheet EC50_parameters, Neut
Experimental: as §1, §2, §3, §4, §5, §6

MK cells (MK-lin) = test: MLTA, MK: concentration-response and QSP model fit; conditions: Homo sapiens; for Emax: 144 h, parameter from QSP model fitting, read-out: Emax_drug_MK; for EC50: QSP model parameter, sheet EC50_parameters, MK
Experimental: as §1, §2, §3, §4, §5, §6

granulocytes (Gran-lin) = test: MLTA, Gran: concentration-response and QSP model fit; conditions: Homo sapiens; for Emax: 144 h, parameter from QSP model fitting, read-out: Emax_drug_Gran; for EC50: QSP model parameter, sheet EC50_parameters, Gran
Experimental: as §1, §2, §3, §4, §5, §6

monocytes (monocyte-lin) = test: MLTA, Mono: concentration-response and QSP model fit; conditions: Homo sapiens, Monocyte; for Emax: 144 h, parameter from QSP model fitting, read-out: Emax_drug_Mono; for EC50: QSP model parameter, sheet EC50_parameters, Mono
Experimental: as §1, §2, §3, §4, §5, §6

Row | Compound | Emax [1] [%] | EC50 [1] [nM] | Emax [2] [%] | EC50 [2] [nM] | Emax (B cells (B-lin)) [%] | EC50 (B cells (B-lin)) [nM] | Emax [3] [%] | EC50 [3] [nM] | EC50 [4] [nM] | Emax [5] [%] | EC50 [5] [nM] | Emax [6] [%] | EC50 [6] [nM] | Emax [7] [%] | EC50 [7] [nM] | Emax [8] [%] | EC50 [8] [nM] | Emax [9] [%] | EC50 [9] [nM] | Emax (MK cells (MK-lin)) [%] | other results
1 | CC(C)C[C@H](NC(=O)[C@H](Cc1ccccc1)NC(=O)c1cnccn1)B(O)O [Bortezomib] | 0.16 | 60.8 | 0.3 | 33.1 | 89.8 | 36.2 | 0.16 | 112 | 40.6 | 0.06 | 132 | 0.17 | 70.9 | 19.1 | 56.5 | 134 | 105 | 23.9 | 108 | 35.3 | EC50 (MK cells (MK-lin)): 38.3 nM; Emax (granulocytes (Gran-lin)): 184%; EC50 (granulocytes (Gran-lin)): 68.6 nM; Emax (monocytes (monocyte-lin)): 39%; EC50 (monocytes (monocyte-lin)): 83.6 nM
2 | Nc1ccn([C@@H]2O[C@H](CO)[C@@H](O)[C@@H]2O)c(=O)n1 [Cytarabine] | 204 | 4.31 | 0.0181 | 122 | 83.9 | 7.35 | 0.032 | 69.7 | 3.37 | 104 | 6.96 | 0.03 | 28.7 | 2.92 | 0.101 | 61.3 | 17.4 | 18.3 | 6.99 | 42.8 | EC50 (MK cells (MK-lin)): 6.86 nM; Emax (granulocytes (Gran-lin)): 0.0324%; EC50 (granulocytes (Gran-lin)): 32.7 nM; Emax (monocytes (monocyte-lin)): 20.1%; EC50 (monocytes (monocyte-lin)): 63.2 nM
3 | Nc1cccc2c1CN(C1CCC(=O)NC1=O)C2=O (stereo not shown) [Lenalidomide] | 1.17e-05 | 76.9 | 4.52e-05 | 786 | 1.49e-05 | 1000 | 0.0004 | 26.7 | 3060 | 5.98e-05 | 937 | 3.83e-05 | 1050 | 1.48e-06 | 262 | 1.33e-06 | 1130 | 4.07e-06 | 2690 | 2.23e-06 | EC50 (MK cells (MK-lin)): 763 nM; Emax (granulocytes (Gran-lin)): 9.94e-05%; EC50 (granulocytes (Gran-lin)): 3180 nM; Emax (monocytes (monocyte-lin)): 3.68e-06%; EC50 (monocytes (monocyte-lin)): 292 nM
4 | Cc1sc2c(c1C)C(c1ccc(Cl)cc1)=N[C@@H](CC(=O)Nc1ccc(O)cc1)c1nnc(C)n1-2 [OTX015] | 195 | 1180 | 0.05 | 427 | 76.8 | 425 | 115 | 241 | 851 | 0.16 | 176 | 0.18 | 114 | 12 | 173 | 40.1 | 241 | 16.7 | 88.3 | 26.9 | EC50 (MK cells (MK-lin)): 4130 nM; Emax (granulocytes (Gran-lin)): 126%; EC50 (granulocytes (Gran-lin)): 364 nM; Emax (monocytes (monocyte-lin)): 37.5%; EC50 (monocytes (monocyte-lin)): 264 nM

From publication PMC7402526, “An in vitro quantitative systems pharmacology approach for deconvolving mechanisms of drug-induced, multilineage cytopenias” (PLoS Computational Biology, 2020)
